Test results reported in patent US20090084166A1, “Sensors comprising a chelated metal ion linker layer” (priority 2007, published 2009).

Experiments:
[1] = Non-specific binding test of CAII on the sensor surface without EDC/NHS activation; conditions: CAII flowed over surface 101 without prior activation with EDC/NHS
From the text: Present on the activated dielectric surface 110 is a chelated metal ion linking layer 104. […] (RU stands for resonance unit and is directly proportional to the concentration of biomolecules on a surface. 1 RU is ca. 1 pg/mm^2.)
To test for non-specific binding, a ligand (CAII) was flowed over surface 101 through chamber 136 in the same manner as above but without any prior activation with EDC/NHS.

[2] = target: carbonic anhydrase II (CAII) (Homo sapiens, UniProt P00918); test: SPR biomolecular interaction assay of CBS with immobilized CAII; type: binding; conditions: CBS 40 μM to 80 nM in phosphate-buffered saline, run over CAII surface
From the text: During use, light source 142 directs a light beam 150 toward prism 120 by way of suitable optics. Light beam 150 passes into and through light-transmissive support 105 and reflects off metal layer 107. Reflected light 152 is received by optical detector 144. Optical detector 144 passes a corresponding signal to the detection circuitry 146. The ligand 102 is contacted with sample and may bind to analytes in the sample. Binding of analyte and ligand 102 causes a change in a property of the reflected light 152 that can be detected by optical detection system 130. Upon detection of the change in a property of the reflected light 152, the detection system may produce a sample-responsive signal. The resultant sample responsive signal may then be employed to assess the presence of analyte in the sample. In certain embodiments, the sample-responsive signal is in the form of a “sensorgram.” A sensorgram is a plot of response (measured in “resonance units” or “RU”) as a function of time. An increase of RU corresponds to an increase of mass on the sensor surface. […]
The ligand, (CAII) is immobilized on the surface layer as stated above in “ligand attachment”. […] Binding curves are produced of the analyte interaction with the enzyme and binding rates are calculated.

Substance	non-specific binding [1]	Response units (binding to immobilized CAII) [2]
carbonic anhydrase II [CAII]	ca. 10 RU	–
carboxybenzenesulfonamide [CBS]	–	proportional to the concentration of the analyte and are cleanly seen above the baseline
